Values of other authors in US6682747B1 (Boehringer Ingelheim Pharma KG, priority 1998, dated 2004).

Settings: buffered aqueous systems, pH 2-4

- solubility: less than 0.5 μg/ml
Compound: Cc1cnc(NC(=O)C2=C(O)c3ccccc3S(=O)(=O)N2C)s1 [meloxicam]
